These results are taken from US8697149B2, “Extracts and compounds from “Tulbaghia violacea” and their use as biological plant protecting agents” (Agrarforum AG, priority 2005, dated 2014).

Several values for one entry are separate records, joined by “and”; a condition that tells them apart may be missing. Equal entries are not always repeated.

One assay relates to Fusarium oxysporum. In words: in vitro mycelial growth inhibition, modified agar dilution method.
Assay [1] deals with loose kernel smut (Sporisorium cruentum). In words: field trial, sorghum seed treatment against loose kernel smut. Particulars: sorghum seed inoculated with loose kernel smut spores; extract 2.0 g/l, Thiram 0.25% (w/w); field conditions. In kind it is in vivo, Sporisorium cruentum on sorghum.
The test system of assay [2] is covered kernel smut (Sporisorium sorghi). In words: field trial, sorghum seed treatment against covered kernel smut. In kind it is in vivo, Sporisorium sorghi on sorghum. Particulars: sorghum seed inoculated with covered kernel smut spores; extract 2.0 g/l, Thiram 0.25% (w/w); field conditions.
[3] abbreviates: aerial part compounds after P-TLC separation.
Where [4] appears, read: below soil part compounds after P-TLC separation.

On to 2,4-Dithiapentane [Compound A7.1], for which the “% inhibition (mycelial growth of F. oxysporum)” value (“% inhibition” for short) in the assay with Fusarium oxysporum (setting [3]) is listed as 87%.

For the molecule `CSCSCSC` [Compound A6.1, 2,4,6-Trithiaheptane], the “% inhibition” value in the assay with Fusarium oxysporum (setting [3]) is 85%.

For the molecule `CSCSSCSC` [Compound B2.2, 2,4,5,7-Tetrathiaoctane], in the assay with Fusarium oxysporum (setting [4]), the “% inhibition” value stood at 87%.

On to `CSCSSSCSC` [Compound B3.2, 2,4,5,6,8-Pentathianonane], for which, in the assay on Fusarium oxysporum (setting [4]), the “% inhibition” value is on record as 72%.

Take `CN(C)C(=S)SSC(=S)N(C)C` [Thiram]: the figures for the Yield in assay [1] and in assay [2] were 3.9 ± 1.3a ton ha^−1 and 4.8 ± 0.6a ton ha^−1, respectively.

Methylthiosulphonate [Compound A7.2]: the “% inhibition” value in the assay with Fusarium oxysporum (setting [3]) was 50% and 52%.
